System: Sections of the hypothalamus containing the arcuate nucleus
Experiment: release of GHRH from hypothalamic explants in static culture
Assay type: cell-based, rats
Details: GR87 at 100 μm
Text: The arcuate nucleus of the hypothalamus contains the majority of cells that synthesize GHRH and secrete the releasing factor into the anterior pituitary. Sections of the hypothalamus containing the arcuate nucleus were explanted from postnatal day 10-12 rats and maintained in static culture. Once established, these cultures were used to test the prediction that positive, allosteric modulators of AMPA type glutamate receptors will increase the release of GHRH from the hypothalamus into the culture medium. Explants were exposed to GR87 at 100 μm for four hours on some days and to vehicle for the same period on other days. Concentrates of the media were prepared following the exposure periods of GHRH assayed using a commercially available kit. Using a within culture design, i.e. drug vs. vehicle in the same tissue well, provided a control for differences in tissue thickness and the extent to which the arcuate was contained within the explants. As shown, the amount of GHRH in the media was about threefold greater after four hours of treatment with ampakine than it was after an equivalent period of vehicle application. This effect was in the predicted direction and was statistically significant (p=0.011).
A single experiment was conducted to test if prolonged administration of GR87 at 100 μm would affect GHRH secretion. […]

O=C(c1ccc2c(c1)OCCO2)N1CCCCC1 [GR87]
media level of GHRH (24 hours, group of 12 explants (controls 18 ng/400 μl)): 47 ng/400 μl
amount of GHRH in the media relative to vehicle application (four hours, within-culture drug vs vehicle, p=0.011): about threefold

Reference: patent publication US6620808B2, “Endocrine modulation with positive modulators of AMPA type glutamate receptors” (The Regents of the University of California, priority 1997, dated 2003)
